Measurements taken from patent US6472348B1, “Pyridone derivatives and herbicides” (Kumiai Chemical Industry Co., Ltd., priority 1996, dated 2002).

Experiments:
soybean (Gl) = assay: Test Example 6: crop plant selectivity by upland field soil treatment (soybean), phytotoxicity; format: in vivo; design: scale not given here; details: dose 6.3 g ai/10a, 21st day after application
Protocol: (§1) (Test on Crop Plant Selectivity by Upland Field Soil Treatment)
(§2) In a plastic pot (surface area: 600 cm^2) filled with sand, soybean (Gl), Diaitaria ciliaris (Di), green foxtail (Se), Johnsongrass (So), pale smartweed (Po), slender amaranth (Am), common lambsquarters (Ch) and China jute (Ab) were sown and covered with soil. […] The plants were then cultured in a green house, and the evaluation of the herbicidal effects and phytotoxicity was conducted on the 21st day after the application in accordance with the standards as identified in Table 47. Symbol—represents “not tested”.

slender amaranth (Am) [1] = assay: Test Example 5: crop plant selectivity by upland field soil treatment (wheat), herbicidal effects; format: in vivo; design: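 grade of growth control; 5 = at least 90%; 4 = 70 to 90%; 3 = 50 to 70%; 2 = 30 to 50%; 1 = 10 to 30%; 0 = under 10%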; details: dose 6.3 g ai/10a, 21st day after application
Protocol: as §1
(§3) In a plastic pot (surface area: 600 cm^2) filled with sand, wheat (Tr), Diaitaria ciliaris (Di), green foxtail (Se), pale smartweed (Po), slender amaranth (Am), common lambsquarters (Ch) and China jute (Ab) were sown and covered with soil. […] The plants were then cultured in a green house, and the evaluation of the herbicidal effects and phytotoxicity was conducted on the 21st day after the application in accordance with the standards as identified in Table 47. Symbol—represents “not tested”.

green foxtail (Se) [2] = assay: as above; format: in vivo; design: scale not given here; details: dose 6.3 g ai/10a, 21st day after application
Protocol: as §1, §3

pale smartweed (Po) [3] = assay: as above; format: in vivo; design: scale not given here; details: dose 6.3 g ai/10a, 21st day after application
Protocol: as §1, §3

China jute (Ab) [4] = assay: as above; format: in vivo; design: scale not given here; details: dose 6.3 g ai/10a, 21st day after application
Protocol: as §1, §3

[5] = test system: common lambsquarters (Ch); assay: as above; format: in vivo; design: scale not given here; details: dose 6.3 g ai/10a, 21st day after application
Protocol: as §1, §3

wheat (Tr) [6] = assay: Test Example 9: crop plant selectivity by upland field foliage treatment (wheat), phytotoxicity; details: dose 1.6 g ai/10a, 14th day after treatment;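 note: grade of crop injury; 5 = at least 90%; 4 = 70 to 90%; 3 = 50 to 70%; 2 = 30 to 50%; 1 = 10 to 30%; 0 = under 10%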
Protocol: (§4) (Test on Crop Plant Selectivity by Upland Field Foliage Treatment)
(§5) In a plastic pot (surface area: 600 cm^2) filled with sand, wheat (Tr), pale smartweed (Po), slender amaranth (Am), common lambsquarters (Ch) and China jute (Ab) were sown and cultured in a green house for 2 weeks. […] The plants were then cultured in a green house, and the evaluation of the herbicidal effects and phytotoxicity was conducted on the 14th day after the treatment in accordance with the standards as identified in Table 47.

barnyardgrass (Ec) [7] = assay: Test Example 1: herbicidal effects by paddy field soil treatment; format: in vivo; details: 100 g of the active ingredient per 10 ares, 21st day after the application, index 0-5 of Table 47;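 note: grade of growth control; 5 = at least 90%; 4 = 70 to 90%; 3 = 50 to 70%; 2 = 30 to 50%; 1 = 10 to 30%; 0 = under 10%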
How it was run: (§6)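 Flooded paddy-soil pots (3 cm water) sown after puddling/leveling; treatment 100 g a.i./10 ares; greenhouse culture; herbicidal effect rated visually on a scoring scale at 21 d post-application.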

bulrush (Sc) = assay: as above; format: in vivo; details: 100 g of the active ingredient per 10 ares, 21st day after the application, index 0-5 of Table 47;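 note: grade of growth control; 5 = at least 90%; 4 = 70 to 90%; 3 = 50 to 70%; 2 = 30 to 50%; 1 = 10 to 30%; 0 = under 10%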
How it was run: as §6

monochoria (Mo) = assay: as above; format: in vivo; details: 100 g of the active ingredient per 10 ares, 21st day after the application, index 0-5 of Table 47;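 note: grade of growth control; 5 = at least 90%; 4 = 70 to 90%; 3 = 50 to 70%; 2 = 30 to 50%; 1 = 10 to 30%; 0 = under 10%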
How it was run: as §6

cotton (Go) = assay: Test Example 4: crop plant selectivity by upland field soil treatment (cotton), phytotoxicity; format: in vivo; design: scale not given here; details: dose 6.3 g ai/10 a, evaluated 21st day after application
Protocol: as §1
(§7) In a plastic pot (surface area: 600 cm^2) filled with sand, cotton (Go), Diaitaria ciliaris (Di), green foxtail (Se), pale smartweed (Po), slender amaranth (Am), common lambsquarters (Ch) and China jute (Ab) were sown and covered with soil. […] The plants were then cultured in a green house, and the evaluation of the herbicidal effects and phytotoxicity was conducted on the 21st day after the application in accordance with the standards as identified in Table 47. Symbol—represents “not tested”.

slender amaranth (Am) [8] = assay: Test Example 9: crop plant selectivity by upland field foliage treatment (wheat), herbicidal effects; format: in vivo; design: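 grade of growth control; 5 = at least 90%; 4 = 70 to 90%; 3 = 50 to 70%; 2 = 30 to 50%; 1 = 10 to 30%; 0 = under 10%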; details: dose 1.6 g ai/10a, 14th day after treatment
Protocol: as §4, §5

pale smartweed (Po) [9] = assay: as above; format: in vivo; design: scale not given here; details: dose 1.6 g ai/10a, 14th day after treatment
Protocol: as §4, §5

China jute (Ab) [10] = assay: as above; format: in vivo; design: scale not given here; details: dose 1.6 g ai/10a, 14th day after treatment
Protocol: as §4, §5

[11] = test system: common lambsquarters (Ch); assay: as above; format: in vivo; design: scale not given here; details: dose 1.6 g ai/10a, 14th day after treatment
Protocol: as §4, §5

slender amaranth (Am) [12] = assay: Test Example 3: herbicidal effects by upland field foliage treatment; format: in vivo; design: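 grade of growth control; 5 = at least 90%; 4 = 70 to 90%; 3 = 50 to 70%; 2 = 30 to 50%; 1 = 10 to 30%; 0 = under 10%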; details: 100 g active ingredient per 10 ares, evaluated 14th day after treatment
How it was run: (§8)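 Scoring used a standard effect scale on the 14th day post-treatment, with plants held in a greenhouse throughout. Foliar application was made to weeds raised from seed in sand-filled pots for 2 weeks.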

Diaitaria ciliaris (Di) = assay: as above; format: in vivo; design: scale not given here; details: 100 g active ingredient per 10 ares, evaluated 14th day after treatment
How it was run: as §8

barnyardgrass (Ec) [13] = assay: as above; format: in vivo; design: scale not given here; details: 100 g active ingredient per 10 ares, evaluated 14th day after treatment
How it was run: as §8

rice flatsedge (Ci) [14] = assay: as above; format: in vivo; design: scale not given here; details: 100 g active ingredient per 10 ares, evaluated 14th day after treatment
How it was run: as §8

pale smartweed (Po) [15] = assay: as above; format: in vivo; design: scale not given here; details: 100 g active ingredient per 10 ares, evaluated 14th day after treatment
How it was run: as §8

[16] = test system: common lambsquarters (Ch); assay: as above; format: in vivo; design: scale not given here; details: 100 g active ingredient per 10 ares, evaluated 14th day after treatment
How it was run: as §8

slender amaranth (Am) [17] = assay: Test Example 4: crop plant selectivity by upland field soil treatment (cotton), herbicidal effects; format: in vivo; design: scale not given here; details: dose 6.3 g ai/10 a, evaluated 21st day after application
Protocol: as §1, §7

green foxtail (Se) [18] = assay: as above; format: in vivo; design: scale not given here; details: dose 6.3 g ai/10 a, evaluated 21st day after application
Protocol: as §1, §7

pale smartweed (Po) [19] = assay: as above; format: in vivo; design: scale not given here; details: dose 6.3 g ai/10 a, evaluated 21st day after application
Protocol: as §1, §7

China jute (Ab) [20] = assay: as above; format: in vivo; design: scale not given here; details: dose 6.3 g ai/10 a, evaluated 21st day after application
Protocol: as §1, §7

[21] = test system: common lambsquarters (Ch); assay: as above; format: in vivo; design: scale not given here; details: dose 6.3 g ai/10 a, evaluated 21st day after application
Protocol: as §1, §7

slender amaranth (Am) [22] = assay: Test Example 2: herbicidal effects by upland field soil treatment; format: in vivo; details: 100 g of the active ingredient per 10 ares, evaluated on the 21st day after application
From the text: (§9) (Test on Herbicidal Effects by Upland Field Soil Treatment)

Digitaria ciliaris (Di) = assay: as above; format: in vivo; details: 100 g of the active ingredient per 10 ares, evaluated on the 21st day after application
From the text: as §9

barnyardgrass (Ec) [23] = assay: as above; format: in vivo; details: 100 g of the active ingredient per 10 ares, evaluated on the 21st day after application
From the text: as §9

rice flatsedge (Ci) [24] = assay: as above; format: in vivo; details: 100 g of the active ingredient per 10 ares, evaluated on the 21st day after application
From the text: as §9

pale smartweed (Po) [25] = assay: as above; format: in vivo; details: 100 g of the active ingredient per 10 ares, evaluated on the 21st day after application
From the text: as §9

[26] = test system: common lambsquarters (Ch); assay: as above; format: in vivo; details: 100 g of the active ingredient per 10 ares, evaluated on the 21st day after application
From the text: as §9

wheat (Tr) [27] = assay: Test Example 5: crop plant selectivity by upland field soil treatment (wheat), phytotoxicity; format: in vivo; design: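 grade of crop injury; 5 = at least 90%; 4 = 70 to 90%; 3 = 50 to 70%; 2 = 30 to 50%; 1 = 10 to 30%; 0 = under 10%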; details: dose 6.3 g ai/10a, 21st day after application
Protocol: as §1, §3

slender amaranth (Am) [28] = assay: Test Example 6: crop plant selectivity by upland field soil treatment (soybean), herbicidal effects; format: in vivo; design: scale not given here; details: dose 6.3 g ai/10a, 21st day after application
Protocol: as §1, §2

green foxtail (Se) [29] = assay: as above; format: in vivo; design: scale not given here; details: dose 6.3 g ai/10a, 21st day after application
Protocol: as §1, §2

pale smartweed (Po) [30] = assay: as above; format: in vivo; design: scale not given here; details: dose 6.3 g ai/10a, 21st day after application
Protocol: as §1, §2

China jute (Ab) [31] = assay: as above; format: in vivo; design: scale not given here; details: dose 6.3 g ai/10a, 21st day after application
Protocol: as §1, §2

[32] = test system: common lambsquarters (Ch); assay: as above; format: in vivo; design: scale not given here; details: dose 6.3 g ai/10a, 21st day after application
Protocol: as §1, §2

| Compound | Phytotoxicity Gl (soybean (Gl)) | Herbicidal effects Am (slender amaranth (Am) [1]) | Herbicidal effects Se (green foxtail (Se) [2]) | Herbicidal effects Po (pale smartweed (Po) [3]) | Herbicidal effects Ab (China jute (Ab) [4]) | Herbicidal effects Ch [5] | Herbicidal effects Ec (barnyardgrass (Ec) [7]) | Herbicidal effects Sc (bulrush (Sc)) | Herbicidal effects Mo (monochoria (Mo)) | Phytotoxicity Go (cotton (Go)) | Herbicidal effects Am (slender amaranth (Am) [12]) | Herbicidal effects Di (Diaitaria ciliaris (Di)) | Herbicidal effects Ec (barnyardgrass (Ec) [13]) | Herbicidal effects Ci (rice flatsedge (Ci) [14]) | Herbicidal effects Po (pale smartweed (Po) [15]) | Herbicidal effects Ch [16] | Herbicidal effects Am (slender amaranth (Am) [17]) | Herbicidal effects Se (green foxtail (Se) [18]) | Herbicidal effects Po (pale smartweed (Po) [19]) | Herbicidal effects Ab (China jute (Ab) [20]) | other results |
| --- | --- | --- | --- | --- | --- | --- | --- | --- | --- | --- | --- | --- | --- | --- | --- | --- | --- | --- | --- | --- | --- |
| CCN1C(=O)COc2cc(F)c(-c3ccc(C(F)(F)F)n(C)c3=O)cc21 [Compound 2-15] | 1 | 5 | 5 | 5 | 5 | 5 | 5 | 5 | 5 | 0 | 5 | 5 | 5 | 5 | 5 | 5 | 5 | 5 | 5 | 5 | Phytotoxicity Tr (wheat (Tr) [6]): 2; Herbicidal effects Am (slender amaranth (Am) [8]): 5; Herbicidal effects Po (pale smartweed (Po) [9]): 5; Herbicidal effects Ab (China jute (Ab) [10]): 5; Herbicidal effects Ch [11]: 5; Herbicidal effects Ch [21]: 5; Herbicidal effects Am (slender amaranth (Am) [22]): 5; Herbicidal effects Di (Digitaria ciliaris (Di)): 5; Herbicidal effects Ec (barnyardgrass (Ec) [23]): 5; Herbicidal effects Ci (rice flatsedge (Ci) [24]): 5; Herbicidal effects Po (pale smartweed (Po) [25]): 5; Herbicidal effects Ch [26]: 5; Phytotoxicity Tr (wheat (Tr) [27]): 1; Herbicidal effects Am (slender amaranth (Am) [28]): 5; Herbicidal effects Se (green foxtail (Se) [29]): 5; Herbicidal effects Po (pale smartweed (Po) [30]): 5; Herbicidal effects Ab (China jute (Ab) [31]): 5; Herbicidal effects Ch [32]: 5 |
| C#CCN1C(=O)C(C)Oc2cc(Cl)c(-c3ccc(C(F)(F)F)n(C)c3=O)cc21 (centres unmarked) [Compound No. 2′-1, 3-[7-chloro-2,3-dihyro-2-methyl-4-(2-propynyl)-1,4-benzoxazin-3-on-6-yl]-6-trifluoromethyl-1-methyl-2(1H)-pyridone] | 1 | 5 | 5 | 5 | 5 | 5 | 5 | 5 | 5 | 1 | 5 | 5 | 5 | 5 | 5 | 5 | 5 | 5 | 5 | 5 | Herbicidal effects Ch [21]: 5; Herbicidal effects Am (slender amaranth (Am) [22]): 5; Herbicidal effects Di (Digitaria ciliaris (Di)): 5; Herbicidal effects Ec (barnyardgrass (Ec) [23]): 5; Herbicidal effects Ci (rice flatsedge (Ci) [24]): 5; Herbicidal effects Po (pale smartweed (Po) [25]): 5; Herbicidal effects Ch [26]: 5; Phytotoxicity Tr (wheat (Tr) [27]): 2; Herbicidal effects Am (slender amaranth (Am) [28]): 5; Herbicidal effects Se (green foxtail (Se) [29]): 5; Herbicidal effects Po (pale smartweed (Po) [30]): 5; Herbicidal effects Ab (China jute (Ab) [31]): 5; Herbicidal effects Ch [32]: 5 |
